Assay results as given in US20110288154A1, “RNA Interference Mediated Inhibition of Epithelial Sodium Channel (ENaC) Gene Expression Using Short Interfering Nucleic Acid (siNA)” (MERCK & CO., INC., priority 2008, published 2011).
[invAb] = inverted abasic unit; d = 2'-deoxy (DNA); m = 2'-O-methyl; r = 2'-OH (RNA); f = 2'-fluoro

How the values were obtained:
[1] = system: rSCNN1A (r ENaCα) mRNA; assay: Screening of ENaCα siNAs in Rat H-4-II-E cells (quantitative RT-PCR); assay type: cell-based; set-up: Percent Reduction of the r ENaCα mRNA relative to a non-targeting control siNA (NTCs) / Rat % KD (efficacy of ENaCα mRNA knockdown): concentration or dose not given beside the values; settings: for Mean (rSCNN1A expression normalized to the level of rGAPDH) / Percent Reduction of the r ENaCα mRNA relative to a non-targeting control siNA (NTCs) / Avg ENaCα Expression (rSCNN1A) / Avg GAPDH Expression (rGAPDH): Rat H-4-II-E cells, n = 3; for Mean (rSCNN1A expression normalized to the level of rGAPDH) / Percent Reduction of the r ENaCα mRNA relative to a non-targeting control siNA (NTCs) / Avg GAPDH Expression (rGAPDH): 24 hours post-transfection; for Avg ENaCα Expression (rSCNN1A): harvested 24 hours post-transfection; for Avg GAPDH Expression (rGAPDH): housekeeping gene used for normalisation
Procedure: (§1) A series of probes and primers were used to detect the various mRNA transcripts of the genes of ENaCa and GAPDH in mouse, rat, and human cell lines. The assays were performed on an ABI 7500 instrument, according to the manufacturer's instructions. Within each experiment, the baseline was set in the exponential phase of the amplification curve, and based on the intersection point of the baselines with the amplification curve, a Ct value was assigned by the instrument. This Ct value was then assigned a QTY value based on the Standard Curve. The standard curve in the various experiments herein used 1 ng to 300 ng of RNA extracted from the same cell line used for the experimental transfections.
(§2) All IC50 values were calculated from the data using GraphPad Prizm software, specifically a sigmoidal, variable slope curve for simple ligand binding. Also, unless otherwise indicated, all calculations of the efficacy and potency (e.g., % knockdown) of the siNAs were done relative to a non-targeting control siNA. If reported, P-values were computed using The Students t-test, including the Welch Correction for unequal variances.
(§3) In all of the calculations of the % knock-down of mRNA, the calculation was made relative to the normalized level of expression of the gene of interest in the samples treated with the non-targeting control (NTC) unless otherwise indicated. The gene of interest expression level was divided by the level of expression of GAPDH or 36B4 (depending on the species) in each sample. The three replicates for each condition in each experiment were averaged and the standard deviation of those samples was calculated. The following formula was then used to calculate the % of knock-down of the gene of interest:
(§4) The ENaCα siNAs were designed and synthesized as described previously. The siNAs were screened in three cell lines. Human A549 cells, mouse NIH 3T3 and Rat H-4-II-E cells. The data from the screen of ENaCa siNAs in all three species is shown in Tables 3a, 3b, 4a, 4b, 5a, and 5b and a summary of the data for certain siNA molecules is presented in Table 6. Each screen was performed at 24 hrs. The decision to use this time point was based upon the degree of knockdown of the mRNA seen at that time point.

[2] = system: mSCNN1A mRNA; assay: Screening of ENaCα siNAs in mouse NIH 3T3 cells (quantitative RT-PCR); assay type: cell-based; set-up: Percent Reduction of the mSCNN1A mRNA relative to a non-targeting control siNA / Mouse % KD (efficacy of ENaCα mRNA knockdown): concentration or dose not given beside the values; settings: for Mean (mSCNN1A expression normalized to the level of m36B4) / Percent Reduction of the mSCNN1A mRNA relative to a non-targeting control siNA / Avg ENaCα Expression (mSCNN1A) / Avg 36B4 Expression: mouse NIH 3T3 cells, n = 3; for Mean (mSCNN1A expression normalized to the level of m36B4) / Percent Reduction of the mSCNN1A mRNA relative to a non-targeting control siNA / Avg 36B4 Expression: 24 hours post-transfection; for Avg ENaCα Expression (mSCNN1A): harvested 24 hours post-transfection; for Avg 36B4 Expression: housekeeping gene used for normalisation
Procedure: siNA constructs (Table 1b) may be tested for efficacy in reducing ENaC RNA expression in, for example, A549 human lung carcinoma cells. A549 (human; ATCC cat# CCL-185) cells were cultured at 37° C. in the presence of 5% CO2 and grown in Ham's F12K medium with 2 mM L-glutamine adjusted to contain 1.5 g/L sodium bicarbonate and supplemented with fetal bovine serum at a final concentration of 10% and 100 U/mL penicillin. The A549 cells were plated approximately 24 hours before transfection in 96-well plates at 7,500 cells/well, 100 μl/well. After 24 hours complexes containing siNA and Lipofectamine 2000 (Invitrogen) were created as follows: a solution of Lipofectamine 2000 in OPTI-MEM was prepared containing Lipofectamine 2000 at a final concentration of 14 μg/ml. In parallel, solutions of the siNAs were prepared in OPTI-MEM at a final concentration of 150 nM. After both solutions were incubated at 20° C. for 20 minutes an equal volume of the siNA solutions and the Lipofectamine 2000 solution were added together for each of the siNAs. The resultant solution has the siNAs at a final concentration of 75 nM and Lipofectamine 2000 at a final concentration of 7 μg/ml. This solution was incubated at 20° C. for 20 minutes. After incubation 50 μl of the solution were added to each of the wells (in triplicate). The final concentration of siNA in each well was 25 nM and the final concentration of Lipofectamine 2000 in each well was 2.33 μg/ml. The plates were incubated for 48 hours with no change of media before harvesting. Dose response curves were determined in a similar manner with each concentration being done in triplicate and maintaining a constant amount of Lipofectamine 2000 in each transfection.
as §1, §2, §3, §4

Substance | Mean (rSCNN1A expression normalized to the level of rGAPDH) [1] | Percent Reduction of the r ENaCα mRNA relative to a non-targeting control siNA (NTCs) [1] | Avg ENaCα Expression (rSCNN1A) [1] | Avg GAPDH Expression (rGAPDH) [1] | Mean (mSCNN1A expression normalized to the level of m36B4) [2] | Percent Reduction of the mSCNN1A mRNA relative to a non-targeting control siNA [2] | Avg ENaCα Expression (mSCNN1A) [2] | Avg 36B4 Expression [2] | IC50 ([1]; rat cell line, dose response, read-out: Rat IC50 (potency of ENaCα mRNA knockdown)) | Rat % KD (efficacy of ENaCα mRNA knockdown) ([1]; rat cell line, summary) | IC50 ([2]; mouse cell line, dose response, read-out: Mouse IC50 (potency of ENaCα mRNA knockdown)) | Mouse % KD (efficacy of ENaCα mRNA knockdown) ([2]; mouse cell line, summary)
B GccAGuGGAGccuGuGGuu TTB / AACcAcAGGcuccAcuGGcUU (sense GCCAGUGGAGCCUGUGGUUTT; antisense AACCACAGGCUCCACUGGCUU; siRNA; sense: DNA at AGT, 2'-fluoro at CU, [invAb] at 5' end, 3' end, backbone not given here; antisense: sugars from the 5' end rrrfmfmmmffffmffmmfmm, backbone not given here) [Site 1757] | 0.72 | 21.5% | 29.36 | 40.49 | 0.11 | 22.2% | 2.58 | 24.24 |  |  |  | 
B uGGGcAGccAGuGGAGccu TTB / AGGcuccAcuGGcuGcccAUU (sense UGGGCAGCCAGUGGAGCCUTT; antisense AGGCUCCACUGGCUGCCCAUU; siRNA; sense: DNA at AGT, 2'-fluoro at CU, [invAb] at 5' end, 3' end, backbone not given here; antisense: sugars from the 5' end rrrffffmffmmffmfffmmm, backbone not given here) [Site 1751] | 0.59 | 36.0% | 26.87 | 45.19 | 0.10 | 27.6% | 2.85 | 28.97 |  |  |  | 
B cAcAAccGcAuGAAGAcGG TTB / CCGucuucAuGcGGuuGuGUU (chain 1 CACAACCGCAUGAAGACGGTT; chain 2 CCGUCUUCAUGCGGUUGUGUU; siRNA; chain 1: DNA at AGT, 2'-fluoro at CU, [invAb] at 5' end, 3' end, backbone not given here; chain 2: sugars from the 5' end rrrfffffmfmfmmffmfmmm, backbone not given here) [Site 334] | 0.85 | 33.7% | 16.10 | 19.11 | 0.21 | 12.3% | 3.57 | 16.98 |  |  |  | 
B AGuGuGGcuGuGccuAcAu TTB / AUGuAGGcAcAGccAcAcuUU (sense AGUGUGGCUGUGCCUACAUTT; antisense AUGUAGGCACAGCCACACUUU; siRNA; sense: DNA at AGT, 2'-fluoro at CU, [invAb] at 5' end, 3' end, backbone not given here; antisense: sugars from the 5' end rrrfmmmfmfmmffmfmffmm, backbone not given here) [Site 1382] | 0.84 | 34.5% | 22.02 | 26.11 | 0.21 | 10.7% | 2.94 | 13.77 |  |  |  | 
B cuGuGcAAccAGAAcAAAu TTB / AUUuGuucuGGuuGcAcAGUU (chain 1 CUGUGCAACCAGAACAAAUTT; chain 2 AUUUGUUCUGGUUGCACAGUU; siRNA; chain 1: DNA at AGT, 2'-fluoro at CU, [invAb] at 5' end, 3' end, backbone not given here; chain 2: sugars from the 5' end rrrfmffffmmffmfmfmmmm, backbone not given here) [Site 781] | 0.86 | 32.8% | 23.09 | 26.57 | 0.22 | 9.8% | 3.50 | 16.49 |  |  |  | 
B GuGuGGcuGuGccuAcAuc TTB / GAUGuAGGcAcAGccAcAcUU (sense GUGUGGCUGUGCCUACAUCTT; antisense GAUGUAGGCACAGCCACACUU; siRNA; B caps on sense ends, letter-case modifications not given here, further chemistry not given here) [Site 1383] | 0.63 | 50.7% | 15.01 | 23.52 | 0.04 | 82.4% | 0.91 | 14.23 | 1 nM | 50% | 3 nM | 82%
B GcAuGAAGAcGGccuucuG TTB / CAGAAGGccGuCuucAuGcUU (chain 1 GCAUGAAGACGGCCUUCUGTT; chain 2 CAGAAGGCCGUCUUCAUGCUU; siRNA; chain 1: DNA at AGT, 2'-fluoro at CU, [invAb] at 5' end, 3' end, backbone not given here; chain 2: sugars from the 5' end rrrmmmmffmfmfffmfmfmm, backbone not given here) [Site 341] | 1.05 | 18.4% | 19.10 | 18.30 | 0.23 | 3.9% | 3.17 | 13.56 |  |  |  | 
B AAccuGGGcAGccAGuGGA TTB / UCCAcuGGcuGcccAGGuuUU (sense AACCUGGGCAGCCAGUGGATT; antisense UCCACUGGCUGCCCAGGUUUU; siRNA; sense: sugars from the 5' end ddfffdddfddffddfddrdd, [invAb] at 5' end, 3' end, backbone not given here; antisense: sugars from the 5' end rrrmffmmffmfffmmmffmm, backbone not given here) [Site 1747] | 0.56 | 39.5% | 23.39 | 41.88 | 0.15 | −6.1% | 3.67 | 25.19 |  |  |  | 
